Measurements: patent publication US11547685B2, “Using probenecid to treat polycystic kidney disease” (Mayo Foundation for Medical Education and Research, priority 2017, dated 2023)
Where “and” joins values, the source holds several entries; their conditions need not be identical. Equal values may be shown once. Entries after “also recorded” stand apart in the source; their conditions may differ.

Experiments:
mIMCD3 cells [1] = experiment: Proliferation assay (Incucyte confluence); type: cell-based, mouse; conditions: 7 days
Experimental: FIG. 5. Probenecid inhibits proliferation in mICMD3 cells. mIMCD3 cells were grown in 96 wells plate (2500 […]) for 7 days and imaged every 4 hours in an incubator-based imaging system (Incucyte). Confluence was measured at each time point. Cells were treated with defined medium (control), forskolin (FSK) 10 μM, or probenecid (PB) 500 μM and 1000 μM. Control and forskolin (FSK 10 μM) groups reached confluence faster when compared to probenecid alone or probenecid with forskolin. […] Cells were seeded in 96 wells plate (2500 cells/well) and grown for 7 days. Images were taken by an incubator-based microscope (Incucyte) every 4 hours and analyzed for confluence. Probenecid inhibited proliferation in a dose dependent manner. Cells were grown and imaged for 7 days in an incubator-based imaging system (IncuCyte) and analyzed for confluence.

embryonic kidneys = experiment: Forskolin-induced cystogenesis in cultured embryonic kidneys; conditions: E13.5 kidneys, forskolin-stimulated, probenecid 500 μM, day 5
Experimental: FIG. 6 contains photographs showing that probenecid (500 μM) dramatically reduces cystogenesis in embryonic kidneys. Embryonic kidneys were harvested at E13.5 (embryos were 13-14 days old in utero). These kidneys were harvested and cultured on filters and stimulated with forskolin to induce cysts.

mIMCD3 cells [2] = experiment: cAMP ELISA assay; type: cell-based, mouse
Experimental: FIG. 4. Probenecid enhances the intracellular accumulation of cAMP generated in response to forskolin. Wild type mIMCD3 cells were grown in 6 wells plate to confluence for at least 5 days then treated with either forskolin (10 μM) alone, probenecid alone (500 μM; PB 500), or forskolin (FSK) with probenecid (100 μM, PB100; 250 μM, PB250; and 500 μM, PB500). cAMP was measured by ELISA assay (pmol/mg of protein). […] Cells were grown in 6-wells culture dishes and incubated for at least 5 days post confluence. Cells were collected then homogenized in 0.1 M HCl. The protein concentration was measured by using BCA Protein Assay Kit. After centrifugation, the supernatant was further diluted in 0.1 M HCl. cAMP content was assessed by enzyme-linked immunosorbent assay. The results were expressed in picomoles per milligram of protein. Probenecid inhibited MRP1 mediated efflux of cAMP.

mIMCD3 cells [3] = experiment: Time-lapse imaging of cytoplasmic calcium with Gcamp6s biosensor; type: cell-based, mouse; conditions: probenecid 1000 μM, mIMCD3 cells stably transfected with Gcamps6s
Experimental: FIG. 1B. Probenecid increases intracytoplasmic calcium in mouse inner medullary collecting duct cells (mIMCD3). mIMCD3 cells were stably transfected with […] (cytoplasmic calcium genetically encoded biosensor) and grown on 35 mm glass bottom dish for at least 5 days post confluence then imaged under confocal microscopy every 3 seconds. Probenecid (1000 μM) was added to the medium at 10.5 minutes as noted by the blue bar. Fluorescence changes of a region of interest (ROI) in each cell are analyzed in Zen software and reported as a ratio of fluorescence over baseline fluorescence of each ROI (F/F0). An increase in F/F0 indicates relative increase in cytoplasmic calcium. Probenecid increased cytoplasmic calcium by 4-6 folds compared to baseline calcium. Two representative images at baseline and at peak increase of cytoplasmic calcium are shown. Mouse inner medullary collecting duct immortalized cell lines were used (mIMCD3): wild type (WT) or with a knockout of Pkd1 (Pkd^1-/-) or Pkd2 (Pkd^2-/-). WT cells were transfected with GCamp6s by electroporation (Bio Rad Gene pulser Xcell). […] Time lapses (every 3 seconds) were captured on Zeiss confocal microscope (LSM-780) and analyzed on Zeiss Zen Pro software. […] Fluorescence changes of a region of interest (ROI) in each cell were analyzed in Zen software and reported as a ratio of fluorescence over baseline fluorescence of each ROI (F/F0). […]

mIMCD3 cells [4] = experiment: Three dimensional (3D) cystogenesis assay, forskolin-induced; type: cell-based, mouse; conditions: for reduction in cyst size: 5 days
Experimental: FIG. 2. Probenecid reduces forskolin-induced cystogenesis. mIMCD3 cells were grown in 3D matrigel-based extracellular matrix system and incubated with defined medium (control)+/−forskolin (10 μM) and probenecid (500 μM and 1000 μM) for 5 days. Cysts were imaged using an inverted phase microscope, and cyst size was quantified by measuring cyst diameter using Image J software and reported as cyst surface area (μm^2). Forskolin induced cystogenesis in wild type. […] FIG. 3. Probenecid reduces forskolin induced in vitro cystogenesis. As described in FIG. 3, cells were grown in matrigel based system for 5 days. All four groups shown were stimulated with 10 μM of forskolin. Different doses of probenecid were compared. A dose effect was seen as higher dose of probenecid were more efficacious in reducing cyst growth when stimulated with forskolin. […] 3D matrix was prepared by mixing 1:1 matrigel with defined medium (DMEM, 25 μg/L EGF, 5 μg/mL insulin, 5 μg/mL transferrin, 5 ng/mL selenium, penicillin, streptomycin, 5×10^−12 M triiodothyronine, and 5×10^−8 M hydrocortisone). Cells were mixed with the extracellular matrix and grown in 96-wells plate (8000-10000 cells per well). The desired drug concentration (forskolin 10 μM, probenecid 500-1000 μM) was added to the medium and changed on a daily basis. Images of the wells were taken daily by an inverted phase contrast microscope. Images from day 5 were analyzed using Image J software. Cyst surface was calculated using cyst diameter. mIMCD3 cells were grown in three dimensional matrix-based extracellular matrix. When stimulated with forskolin, these cells grew to form multiple cysts. […] The cyst reduction may be due to inhibition of cell proliferation, inhibition of chloride driven fluid secretion, or both.

[5] = test system: Pkd1^RC/RC PKD mouse model; experiment: PKD mouse model Pkd1RC/RC, kidney weight/body weight; type: in vivo; conditions: Pkd1^RC/RC mice, 0.03 mg in 100 mg of chow, treated from age 4 weeks to 12 weeks
Experimental: The PKD mouse model, Pkd1^RC/RC, was used in this experiment. Probenecid (0.03 mg in 100 mg of chow), tolvaptan (0.03 mg in 100 mg of chow), or the combination of tolvaptan and probenecid were mixed with the food. […] The treatment started from age 4 weeks to 12 weeks. Mice were sacrificed, and the kidney weight (KW) was measured then standardized to body weight (BW). KW/BW ratio was an established method to report an effect of therapy in ADPKD mouse models.

| Structure (SMILES) | proliferation (confluence) (mIMCD3 cells [1]; Pkd2 null mIMCD3, probenecid 1000 μM alone) | proliferation (confluence) (mIMCD3 cells [1]; wild type mIMCD3, probenecid 500 and 1000 μM) | cyst formation in embryonic kidney culture (embryonic kidneys) | intracellular cAMP, probenecid combined with forskolin versus forskolin alone (mIMCD3 cells [2]; wild type mIMCD3, forskolin 10 μM plus probenecid 100, 250, 500 μM) | intracellular cAMP, probenecid alone (mIMCD3 cells [2]; wild type mIMCD3, probenecid 500 μM, no forskolin) | increase in cytoplasmic calcium (F/F0) compared to baseline calcium (mIMCD3 cells [3]) | reduction in cyst size (mIMCD3 cells [4]; probenecid 500 μM with forskolin 10 μM) | reduction in cyst size (mIMCD3 cells [4]; probenecid 1000 μM with forskolin 10 μM) | reduction of cystic burden in 3D in vitro cystogenesis assay (mIMCD3 cells [4]; summary statement) | cystogenesis with probenecid alone (mIMCD3 cells [4]; without forskolin) | mean KW/BW ratio [5] |
| --- | --- | --- | --- | --- | --- | --- | --- | --- | --- | --- | --- |
| CCCN(CCC)S(=O)(=O)c1ccc(C(=O)O)cc1 [probenecid, 4-(dipropyl-sulfamoyl) benzoic acid] | most completely inhibited proliferation | significantly inhibited proliferation | significantly inhibited; also recorded: almost completely prevents cyst formation | increased cAMP levels in a dose dependent fashion | did not increase cAMP | 4-6 fold and 4- to 6 fold | 68.4% | 82.6% | more than 80% | did not induce any cystogenesis | 2.56% (±0.42) |
| Cc1ccccc1C(=O)Nc1ccc(C(=O)N2CCCC(O)c3cc(Cl)ccc32)c(C)c1 (stereo not drawn) [tolvaptan] | – | – | – | – | – | – | – | – | – | – | 2.07% (±0.42) |
